This data set concerns GENE-TOX genotoxicity assays, various organisms and cells. Kind of data set: GENE-TOX mutagenicity studies. To be noted: for call: Assay Type: In vivo carcinogenicity studies.
Setting [1] is: Species/Cell Type: Vicia faba, Assay Type: Chromosome aberrations, Assay Code: VIC+D, Dose Response: With dose response, Evaluation Type: Evaluation A (Pre-1980).
The mark [2] stands for this setting: Species/Cell Type: Salmonella typhimurium (one or more of the five standard strains: TA98, TA100, TA1535, TA1537, and TA1538), Assay Type: Histidine reverse gene mutation, Ames assay, Assay Code: SAL+, Evaluation Type: Evaluation A (Pre-1980).
[3] abbreviates: Species/Cell Type: Salmonella typhimurium (one or more of the five standard strains: TA98, TA100, TA1535, TA1537, and TA1538), Assay Type: Histidine reverse gene mutation, Ames assay, Assay Code: SAL+*, Activation: With metabolic activation, Evaluation Type: Evaluation A (Pre-1980).
Setting [4] is: Species/Cell Type: Drosophila melanogaster, Assay Type: Sex-linked recessive lethal gene mutation, Assay Code: SRL+, Evaluation Type: Evaluation A (Pre-1980).
Where [5] appears, read: Species/Cell Type: Glycine max (soybean), Assay Type: Gene mutation, Assay Code: GLM-, Evaluation Type: Evaluation A (Pre-1980).
The mark [6] stands for this setting: Species/Cell Type: Mammalian polychromatic erythrocytes, Assay Type: Micronucleus test, chromosome aberrations, Assay Code: MNT+, Evaluation Type: Evaluation B (Post-1980).
[7] abbreviates: Species/Cell Type: Mammalian polychromatic erythrocytes, Assay Type: Micronucleus test, chromosome aberrations, Assay Code: MNTT, Evaluation Type: Evaluation B (Post-1980).
The mark [8] stands for this setting: Species/Cell Type: Drosophila melanogaster, Assay Type: Sex-linked recessive lethal gene mutation, Assay Code: SRLT, Evaluation Type: Evaluation A (Pre-1980).
Setting [9] is: Species/Cell Type: Escherichia coli WP2, Assay Type: Tryptophan reverse gene mutation, Assay Code: WP2-, Evaluation Type: Evaluation A (Pre-1980).
[10] abbreviates: Species/Cell Type: Allium cepa, Assay Type: Chromosome aberrations, Assay Code: ALC+, Evaluation Type: Evaluation A (Pre-1980).
Setting [11] is: Species/Cell Type: Human lymphocytes, Assay Type: Sister-chromatid exchange (SCE) in vitro, Assay Code: SCL+D, Dose Response: With dose response, Evaluation Type: Evaluation B (Post-1980).
The mark [12] stands for this setting: Species/Cell Type: Human, Assay Type: Sister-chromatid exchange (SCE) in vitro, Assay Code: SC1+D, Dose Response: With dose response, Evaluation Type: Evaluation B (Post-1980).
Where [13] appears, read: Species/Cell Type: Salmonella typhimurium (one or more of the five standard strains: TA98, TA100, TA1535, TA1537, and TA1538), Assay Type: Histidine reverse gene mutation, Ames assay, Assay Code: SAL-, Evaluation Type: Evaluation A (Pre-1980).

Each structure is given as a SMILES string. Activity calls are given as the source filed them. The rule behind the calls is not given here.

Turning to `CC(=O)C(NC(=O)C(C)C(O)C(C)NC(=O)C(NC(=O)c1nc(C(CC(N)=O)NCC(N)C(N)=O)nc(N)c1C)C(O[C@@H]1O[C@@H](CO)[C@@H](O)[C@H](O)[C@]1(C)O[C@@H]1OC(CO)[C@H](O)[C@](O)(C(N)=O)[C@H]1O)c1cnc[nH]1)C(=O)NCCC1=NC(c2nc(C(N)=O)cs2)CS1` (some centres not stated), the mutagenic call (Species/Cell Type: Mammalian oocytes or early embryo, Assay Type: Chromosome aberrations in vivo, Assay Code: CYO+, Evaluation Type: Evaluation A (Pre-1980)) was “active; positive” and the mutagenic call under setting [1] was “active; positive”.

`S=C=S`: the mutagenic call (Species/Cell Type: Human, Sex: Male, Assay Type: Sperm morphology, Assay Code: SPH+, Evaluation Type: Evaluation A (Pre-1980)) was “active; positive”.

Turning to `C=C1C(=O)OC2CC(C)C3CC(OCC)OC(OCC)C3(C)CC12` (configuration not stated), the mutagenic call under setting [2] was “active; positive”.

As for `c1ccc2c(c1)CCc1cc3ccc4c(c3cc1-2)CCCC4`, the mutagenic call under setting [3] was “active; positive”.

Turning to `CNC(C)C1CCC(N)C(OC2C(N)CC(N)C(OC3OCC(C)(O)C(NC)C3O)C2O)O1` (configuration not stated), under “Species/Cell Type: Saccharomyces cerevisiae, Assay Type: Mitotic recombination or gene conversion, Assay Code: YEH-, Evaluation Type: Evaluation A (Pre-1980)”, the mutagenic call is “inactive; negative”.

Consider `O=C1CCc2c1ccc1c2ccc2ccccc21`, for which the mutagenic call reads like this: (Species/Cell Type: Human lymphocytes, Assay Type: Sister-chromatid exchange (SCE) in vitro, Assay Code: SCLT, Evaluation Type: Evaluation B (Post-1980)) “no conclusion”; (Species/Cell Type: Human, Assay Type: Sister-chromatid exchange (SCE) in vitro, Assay Code: SC1T, Evaluation Type: Evaluation B (Post-1980)) “no conclusion”; under setting [3], “active; positive”.

For the compound `O=NN1CCN(N=O)CC1`, the mutagenic call under setting [4] is “active; positive”; the mutagenic call (Species/Cell Type: Drosophila melanogaster, Sex: Male, Assay Type: Heritable translocation test, chromosome aberrations, Assay Code: DHTT, Evaluation Type: Evaluation A (Pre-1980)) is “no conclusion”; the mutagenic call under setting [5] is “inactive; negative”; the mutagenic call (Species/Cell Type: Mouse embryo (AKR/ME) cells, Assay Type: Cell transformation, Assay Code: CTK+, Evaluation Type: Evaluation A (Pre-1980)) is “active; positive”; the mutagenic call under setting [3] is “active; positive”; the mutagenic call (Species/Cell Type: Salmonella typhimurium, Assay Type: Forward and reverse gene mutation, host-mediated assay, Assay Code: HMA+, Evaluation Type: Evaluation A (Pre-1980)) is “active; positive”. Also, the call (Species/Cell Type: Nonhuman, Assay Code: CCG+, Evaluation Type: Evaluation A (Pre-1980)) is “active; positive”.

As to `OCCN1CCN(CCCN2c3ccccc3Sc3ccc(C(F)(F)F)cc32)CC1`, the mutagenic call under setting [6] was “active; positive”.

As for `CC[C@@H](CO)NCCN[C@@H](CC)CO`, the mutagenic call (Species/Cell Type: Mammalian polychromatic erythrocytes, Assay Type: Micronucleus test, chromosome aberrations, Assay Code: MNT+U, Dose Response: Unconfirmed positive response, Evaluation Type: Evaluation B (Post-1980)) was “active; positive”.

Regarding `Cn1ncc2c(NC3=NCCO3)cccc21`, the mutagenic call runs as follows: under setting [7], “no conclusion”; (Species/Cell Type: Nonhuman, Assay Type: Sister-chromatid exchange (SCE) in vivo, Assay Code: SC3T, Evaluation Type: Evaluation B (Post-1980)) “no conclusion”.

As for `Clc1ccc(Cl)c(-c2cc(Cl)ccc2Cl)c1`, the mutagenic call (Species/Cell Type: Salmonella typhimurium (one or more of the five standard strains: TA98, TA100, TA1535, TA1537, and TA1538), Assay Type: Histidine reverse gene mutation, Ames assay, Assay Code: SALT, Evaluation Type: Evaluation A (Pre-1980)) is recorded as “no conclusion”.

For `Cc1ccnc2ccccc12`, the mutagenic call under setting [3] is “active; positive”.

On to `Oc1c2ccccc2c2ccc3cccc4ccc1c2c43`, for which the mutagenic call is “inactive; positive without activation, negative with activation” (Species/Cell Type: Chinese hamster lung (V79) cells, Assay Type: Forward gene mutation at the HPRT or ouabain locus, Assay Code: V79+/-*, Activation: With metabolic activation, Evaluation Type: Evaluation A (Pre-1980)) and “active; positive” under setting [2]. Moreover, for the setting “Species/Cell Type: Nonhuman, Assay Code: CCGT, Evaluation Type: Evaluation A (Pre-1980)”, the call is on record as “no conclusion”.

Regarding `O`, the mutagenic call by setting is: (Species/Cell Type: Bacillus subtilis (H17 vs M45), Assay Type: Rec-assay, spot test, DNA effects (bacterial DNA repair), Assay Code: REWT, Evaluation Type: Evaluation A (Pre-1980)) “no conclusion”; (Species/Cell Type: Nonhuman, Assay Type: Sister-chromatid exchange (SCE) in vitro, Assay Code: SC2T, Evaluation Type: Evaluation B (Post-1980)) “no conclusion”; (Species/Cell Type: Syrian hamster embryo (SA7/SHE) cells, Assay Type: Cell transformation, viral enhanced, Assay Code: CT7-, Evaluation Type: Evaluation A (Pre-1980)) “inactive; negative”.

As to `C/C(=C/c1ccc(SC#N)cc1)[N+](=O)[O-]`, the mutagenic call (Species/Cell Type: Bacillus subtilis (H17 vs M45), Assay Type: Rec-assay, spot test, DNA effects (bacterial DNA repair), Assay Code: REW+, Evaluation Type: Evaluation A (Pre-1980)) was “active; positive”.

In the case of `CN(C)c1ccc(/C=C/c2ccccc2)cc1`, under setting [8], the mutagenic call is listed as “no conclusion”.

Consider `Nc1nc2c(ncn2[C@H]2C[C@H](O)[C@@H](CO)O2)c(=O)[nH]1`, for which, under setting [5], the mutagenic call is “inactive; negative”.

On to `CNC(=O)Oc1ccc(C)c(C)c1`, for which the mutagenic call (Species/Cell Type: Bacillus subtilis (H17 vs M45T), Assay Type: Rec-assay, spot test, DNA effects (bacterial DNA repair), Assay Code: REX-, Evaluation Type: Evaluation A (Pre-1980)) was “inactive; negative” and the mutagenic call under setting [9] was “inactive; negative”.

Regarding `Nc1nc(/C=C/c2ccc([N+](=O)[O-])o2)cs1`, under setting [2], the mutagenic call is “active; positive”.

For `O=Nc1ccc2ccc3cccc4ccc1c2c34`, under “Species/Cell Type: Chinese hamster ovary (CHO) cells, Assay Type: Forward gene mutation at the HPRT locus, Assay Code: CHO+, Evaluation Type: Evaluation B (Post-1980)”, the mutagenic call is “active; positive”.

In the case of `O=c1ccc(=O)[nH][nH]1`, the mutagenic call by setting is: under setting [10], “active; positive”; (Species/Cell Type: Arabidopsis species, Assay Type: Gene mutation, Assay Code: ARM-, Evaluation Type: Evaluation A (Pre-1980)) “inactive; negative”; under setting [4], “active; positive”; (Species/Cell Type: Hordeum vulgare (barley), Assay Type: Chromosome aberrations, Assay Code: HOC+, Evaluation Type: Evaluation A (Pre-1980)) “active; positive”; under setting [11], “active; positive”; under setting [12], “active; positive”. The mutagenic call was “no conclusion” (Species/Cell Type: Mammalian polychromatic erythrocytes, Assay Type: Micronucleus test, chromosome aberrations, Assay Code: MNTT, Evaluation Type: Evaluation A (Pre-1980)); “inactive; negative” (Species/Cell Type: Neurospora crassa, Assay Type: Aneuploidy, chromosome aberrations, Assay Code: NEN-, Evaluation Type: Evaluation A (Pre-1980)); “active; positive” (Species/Cell Type: Nonhuman, Assay Type: Sister-chromatid exchange (SCE) in vitro, Assay Code: SC2+D, Dose Response: With dose response, Evaluation Type: Evaluation B (Post-1980)); “inactive; negative” (Species/Cell Type: Nonhuman, Assay Type: Sister-chromatid exchange (SCE) in vitro, Assay Code: SC2-, Evaluation Type: Evaluation A (Pre-1980)); “inactive; negative” under setting [13]; “active; positive” under setting [1]. For the same compound, for the setting “Species/Cell Type: Nonhuman, Assay Code: CCG-L, Evaluation Type: Evaluation A (Pre-1980)”, the call is “inactive; negative”.

Regarding `O=c1cc[nH]c(=O)[nH]1`, the mutagenic call under setting [8] is listed as “no conclusion”.

With `OCN1CCN(CO)C1=S`, the mutagenic call under setting [7] was “no conclusion”.

Take `O=P(OCCCl)(OCCCl)OCCCl`: the mutagenic call is “active; positive” under setting [6] and “inactive; negative” under setting [13].

Consider `Cc1c2ccccc2cc2c3c(ccc12)C(O)C(O)C=C3` (configuration not stated), for which the mutagenic call (Species/Cell Type: Mouse prostate cells, Assay Type: Cell transformation, Assay Code: CTM+, Evaluation Type: Evaluation A (Pre-1980)) was “active; positive”; the mutagenic call (Species/Cell Type: Nonhuman, Assay Type: Sister-chromatid exchange (SCE) in vitro, Assay Code: SC2+D, Dose Response: With dose response, Evaluation Type: Evaluation A (Pre-1980)) is “active; positive”; the mutagenic call under setting [3] is “active; positive”.

As to `COc1ccc(N2CCN(c3ccc([N+](=O)[O-])c4no[n+]([O-])c34)CC2)cc1`, the mutagenic call under setting [2] is “active; positive”.

Take `CN1CCN(CC(=O)NN)CC1`: the mutagenic call is, setting by setting: under setting [9], “inactive; negative”; (Species/Cell Type: Saccharomyces cerevisiae, Assay Type: Mitotic recombination or gene conversion, Assay Code: YEC-*, Activation: With metabolic activation, Evaluation Type: Evaluation A (Pre-1980)) “inactive; negative”.

As to `Oc1ccc(O)cc1`, the mutagenic call was “active; positive” under setting [10], “active; positive” under setting [11], “active; positive” under setting [12] and “active; positive” under setting [6].

Source of the values: PubChem BioAssay AID1259408 (Genetic Toxicology Data Bank (GENE-TOX), 2018).
